Source: ChEMBL document CHEMBL1201861, “Genomics of Drug Sensitity in Cancer screening data, Wellcome Trust Sanger Institute”

Experiments:
Test in all cases: cells
NCI-H69 = format: functional, cell-based; conditions: Homo sapiens;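 also: growth inhibition of the cell line, read out with a cell viability assay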
Description: SANGER: Inhibition of human NCI-H69 cell growth in a cell viability assay.

RPMI-7951 = format: functional, cell-based, Homo sapiens; conditions: Homo sapiens, RPMI-7951
Description: SANGER: Inhibition of human RPMI-7951 cell growth in a cell viability assay.

FaDu = format: functional, cell-based, Homo sapiens; conditions: Homo sapiens, FaDu;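 also: cell viability readout of growth inhibition in FaDu cells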
Description: SANGER: Inhibition of human FADU cell growth in a cell viability assay.

P12-Ichikawa = format: functional, cell-based; conditions: Homo sapiens
AGS = format: functional, cell-based, Homo sapiens; conditions: Homo sapiens, AGS;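 also: growth inhibition of AGS cells, determined with a cell viability assay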
Description: SANGER: Inhibition of human AGS cell growth in a cell viability assay.

SK-UT-1 = format: functional, cell-based, Homo sapiens; conditions: Homo sapiens, SK-UT-1;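 also: growth inhibition of SK-UT-1 cells, measured by a cell viability assay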
Description: SANGER: Inhibition of human SK-UT-1 cell growth in a cell viability assay.

HCC2218 = format: functional, cell-based; conditions: Homo sapiens;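 also: cell viability assay read-out, with IC50 given as the concentration that inhibits growth of the cell line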
Description: SANGER: Inhibition of human HCC2218 cell growth in a cell viability assay.

SW982 = format: functional, cell-based; conditions: Homo sapiens;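 also: growth inhibition of SW982 cells, read out with a cell viability assay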
Description: SANGER: Inhibition of human SW982 cell growth in a cell viability assay.

CAPAN-1 = format: functional, cell-based, Homo sapiens; conditions: Homo sapiens, CAPAN-1;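 also: growth suppression of CAPAN-1 cells, read out by a cell viability assay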
Description: SANGER: Inhibition of human CAPAN-1 cell growth in a cell viability assay.

MDA-MB-415 = format: functional, cell-based; conditions: Homo sapiens
JVM-2 = format: functional, cell-based; conditions: Homo sapiens;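 also: growth inhibition of JVM-2 cells determined by a cell viability assay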
Description: SANGER: Inhibition of human JVM-2 cell growth in a cell viability assay.

HCC1187 = format: functional, cell-based, Homo sapiens; conditions: Homo sapiens, HCC1187;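 also: growth inhibition of HCC1187 cells, read out with a cell viability assay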
Description: SANGER: Inhibition of human HCC1187 cell growth in a cell viability assay.

EW-24 = format: functional, cell-based; conditions: Homo sapiens;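 also: human EW-24 cancer cell line, growth inhibition read out via a cell viability assay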
Description: SANGER: Inhibition of human EW-24 cell growth in a cell viability assay.

UACC-893 = format: functional, cell-based, Homo sapiens; conditions: Homo sapiens, UACC-893
Description: SANGER: Inhibition of human UACC-893 cell growth in a cell viability assay.

Becker = format: functional, cell-based, Homo sapiens; conditions: Homo sapiens, Becker;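 also: growth inhibition of Becker cells, read out with a cell viability assay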
Description: SANGER: Inhibition of human Becker cell growth in a cell viability assay.

SK-N-AS = format: functional, cell-based, Homo sapiens; conditions: Homo sapiens, SK-N-AS;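 also: growth inhibition of human SK-N-AS cells, measured with a cell viability assay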
Description: SANGER: Inhibition of human SK-N-AS cell growth in a cell viability assay.

RPMI-2650 = format: functional, cell-based, Homo sapiens; conditions: Homo sapiens, RPMI-2650
Description: SANGER: Inhibition of human RPMI-2650 cell growth in a cell viability assay.

LB771-HNC = format: functional, cell-based, Homo sapiens; conditions: Homo sapiens, LB771-HNC;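 also: growth inhibition of LB771-HNC human cells, read out with a cell viability assay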
Description: SANGER: Inhibition of human LB771-HNC cell growth in a cell viability assay.

BT-474 = format: functional, cell-based, Homo sapiens; conditions: Homo sapiens, BT-474
Description: SANGER: Inhibition of human BT-474 cell growth in a cell viability assay.

RPMI-8226 = format: functional, cell-based; conditions: Homo sapiens
Description: SANGER: Inhibition of human RPMI-8226 cell growth in a cell viability assay.

HuCCT-1 = format: functional, cell-based, Homo sapiens, HuCCT1; conditions: Homo sapiens, HuCCT-1;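 also: growth inhibition of HuCCT-1 cells, read out by a cell viability assay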
Description: SANGER: Inhibition of human HuCCT1 cell growth in a cell viability assay.

SF-539 = format: functional, cell-based, Homo sapiens; conditions: Homo sapiens, SF-539;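 also: Read-out is a cell viability assay, with IC50 reflecting inhibition of cell growth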
Description: SANGER: Inhibition of human SF539 cell growth in a cell viability assay.

A101D = format: functional, cell-based, Homo sapiens; conditions: Homo sapiens, A101D;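 also: growth inhibition of the cell line, measured with a viability assay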
Description: SANGER: Inhibition of human A101D cell growth in a cell viability assay.

T84 = format: functional, cell-based, Homo sapiens; conditions: Homo sapiens, T84;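 also: growth inhibition measured with a cell viability readout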
Description: SANGER: Inhibition of human T84 cell growth in a cell viability assay.

SK-N-FI = format: functional, cell-based, Homo sapiens; conditions: Homo sapiens, SK-N-FI;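 also: cell viability assay measuring growth inhibition of human SK-N-FI cells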
Description: SANGER: Inhibition of human SK-N-FI cell growth in a cell viability assay.

CAL-27 = format: functional, cell-based, Homo sapiens; conditions: Homo sapiens, CAL-27;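 also: Viability-based readout, IC50 reflecting inhibition of CAL-27 cell growth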
Description: SANGER: Inhibition of human CAL-27 cell growth in a cell viability assay.

LK-2 = format: functional, cell-based, Homo sapiens; conditions: Homo sapiens, LK-2;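 also: growth inhibition of LK-2 cells, read out with a viability assay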
Description: SANGER: Inhibition of human LK-2 cell growth in a cell viability assay.

DMS-79 = format: functional, cell-based; conditions: Homo sapiens;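 also: growth inhibition measured with a cell viability assay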
Description: SANGER: Inhibition of human DMS-79 cell growth in a cell viability assay.

RO82-W-1 = format: functional, cell-based, Homo sapiens; conditions: Homo sapiens, RO82-W-1;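 also: growth inhibition of human RO82-W-1 cells, measured with a cell viability assay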
Description: SANGER: Inhibition of human RO82-W-1 cell growth in a cell viability assay.

CAMA-1 = format: functional, cell-based, Homo sapiens; conditions: Homo sapiens, CAMA-1;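 also: growth inhibition of CAMA-1 cells, read out with a cell viability assay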
Description: SANGER: Inhibition of human CAMA-1 cell growth in a cell viability assay.

NCI-H720 = format: functional, cell-based; conditions: Homo sapiens;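 also: growth inhibition of human NCI-H720 cells determined by a cell viability assay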
Description: SANGER: Inhibition of human NCI-H720 cell growth in a cell viability assay.

MKN-28 = format: functional, cell-based, Homo sapiens; conditions: Homo sapiens, MKN-28;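 also: cell viability assay read-out, IC50 reflects suppression of growth of human MKN-28 cells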
Description: SANGER: Inhibition of human MKN28 cell growth in a cell viability assay.

HCE-4 = format: functional, cell-based, Homo sapiens; conditions: Homo sapiens, HCE-4;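 also: cell viability assay measuring inhibition of growth in the human HCE-4 cell line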
Description: SANGER: Inhibition of human HCE-4 cell growth in a cell viability assay.

LS-123 = format: functional, cell-based, Homo sapiens; conditions: Homo sapiens, LS-123
Description: SANGER: Inhibition of human LS-123 cell growth in a cell viability assay.

NY = format: functional, cell-based, Homo sapiens; conditions: Homo sapiens, NY
Description: SANGER: Inhibition of human NY cell growth in a cell viability assay.

EW-11 = format: functional, cell-based, Homo sapiens; conditions: Homo sapiens, EW-11;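 also: growth inhibition of human EW-11 cells, measured with a cell viability assay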
Description: SANGER: Inhibition of human EW-11 cell growth in a cell viability assay.

NCI-H2342 = format: functional, cell-based; conditions: Homo sapiens;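 also: growth inhibition of the cancer cell line, determined with a cell viability assay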
Description: SANGER: Inhibition of human NCI-H2342 cell growth in a cell viability assay.

NCI-H2347 = format: functional, cell-based, Homo sapiens; conditions: Homo sapiens, NCI-H2347;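 also: growth inhibition of the cell line, read out with a cell viability assay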
Description: SANGER: Inhibition of human NCI-H2347 cell growth in a cell viability assay.

SCC-4 = format: functional, cell-based, Homo sapiens; conditions: Homo sapiens, SCC-4;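 also: growth inhibition of human SCC-4 cells, read out as cell viability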
Description: SANGER: Inhibition of human SCC-4 cell growth in a cell viability assay.

M14 = format: functional, cell-based, Homo sapiens; conditions: Homo sapiens, M14;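 also: growth inhibition of M14 cells, read out with a cell viability assay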
Description: SANGER: Inhibition of human M14 cell growth in a cell viability assay.

HN = format: functional, cell-based, Homo sapiens; conditions: Homo sapiens, HN
Description: SANGER: Inhibition of human HN cell growth in a cell viability assay.

ABC-1 = format: functional, cell-based, Homo sapiens; conditions: Homo sapiens, ABC-1;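 also: growth inhibition of human ABC-1 cells, read out by a cell viability assay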
Description: SANGER: Inhibition of human ABC-1 cell growth in a cell viability assay.

AU565 = format: functional, cell-based, Homo sapiens; conditions: Homo sapiens, AU565;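 also: cell viability assay measuring growth inhibition of human AU565 cells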
Description: SANGER: Inhibition of human AU565 cell growth in a cell viability assay.

Panc1005 = format: functional, cell-based, Homo sapiens; conditions: Homo sapiens, Panc1005;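 also: growth inhibition of human PANC-10-05 cells, measured by a cell viability assay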
Description: SANGER: Inhibition of human PANC-10-05 cell growth in a cell viability assay.

CAS-1 = format: functional, cell-based, Homo sapiens; conditions: Homo sapiens, CAS-1;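 also: growth inhibition of CAS-1 cells, measured with a cell viability assay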
Description: SANGER: Inhibition of human CAS-1 cell growth in a cell viability assay.

8305C = format: functional, cell-based, Homo sapiens; conditions: Homo sapiens, 8305C
Description: SANGER: Inhibition of human 8305C cell growth in a cell viability assay.

EW-1 = format: functional, cell-based, Homo sapiens; conditions: Homo sapiens, EW-1
Description: SANGER: Inhibition of human EW-1 cell growth in a cell viability assay.

U-266 = format: functional, cell-based; conditions: Homo sapiens
Description: SANGER: Inhibition of human U-266 cell growth in a cell viability assay.

HOP-62 = format: functional, cell-based, Homo sapiens; conditions: Homo sapiens, HOP-62;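 also: cell growth inhibition determined with a viability assay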
Description: SANGER: Inhibition of human HOP-62 cell growth in a cell viability assay.

MSTO-211H = format: functional, cell-based, Homo sapiens; conditions: Homo sapiens, MSTO-211H
Description: SANGER: Inhibition of human MSTO-211H cell growth in a cell viability assay.

ES1 = format: functional, cell-based, Homo sapiens; conditions: Homo sapiens, ES1;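 also: growth inhibition of ES1 cells, read out with a cell viability assay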
Description: SANGER: Inhibition of human ES1 cell growth in a cell viability assay.

Work on `C[C@]1(O)C[C@@H](c2nc(-c3ccc4ccc(-c5ccccc5)nc4c3)c3c(N)nccn32)C1` [LINSITINIB] yielded an IC50 (NCI-H69) greater than 2560 nM, an IC50 (RPMI-7951) greater than 2560 nM and an IC50 (FaDu) greater than 2560 nM. It also gave an IC50 (P12-Ichikawa) greater than 2560 nM, an IC50 (AGS) greater than 2560 nM and an IC50 (SK-UT-1) greater than 2560 nM. For the same compound, the IC50 (HCC2218) was greater than 2560 nM, the IC50 (SW982) was greater than 2560 nM and the IC50 (CAPAN-1) was greater than 2560 nM. It also gave an IC50 (MDA-MB-415) greater than 2560 nM, an IC50 (JVM-2) greater than 2560 nM and an IC50 (HCC1187) greater than 2560 nM. For the same compound, the IC50 (EW-24) was greater than 2560 nM, the IC50 (UACC-893) was greater than 2560 nM and the IC50 (Becker) was greater than 2560 nM. It also gave an IC50 (SK-N-AS) greater than 2560 nM, an IC50 (RPMI-2650) greater than 2560 nM and an IC50 (LB771-HNC) of 259 nM. For the same compound, the IC50 (BT-474) was greater than 2560 nM, the IC50 (RPMI-8226) was greater than 2560 nM and the IC50 (HuCCT-1) was greater than 2560 nM. The IC50 (SF-539) was greater than 2560 nM, the IC50 (A101D) was greater than 2560 nM and the IC50 (T84) was 1210 nM. It also gave an IC50 (SK-N-FI) greater than 2560 nM, an IC50 (CAL-27) greater than 2560 nM and an IC50 (LK-2) greater than 2560 nM. The IC50 (DMS-79) was greater than 2560 nM, the IC50 (RO82-W-1) was greater than 2560 nM and the IC50 (CAMA-1) was greater than 2560 nM. The IC50 (NCI-H720) was greater than 2560 nM, the IC50 (MKN-28) was greater than 2560 nM and the IC50 (HCE-4) was greater than 2560 nM. For the same compound, the IC50 (LS-123) was greater than 2560 nM, the IC50 (NY) was greater than 2560 nM and the IC50 (EW-11) was 284 nM. The IC50 (NCI-H2342) was greater than 2560 nM, the IC50 (NCI-H2347) was greater than 2560 nM and the IC50 (SCC-4) was greater than 2560 nM. The IC50 (M14) was greater than 2560 nM, the IC50 (HN) was greater than 2560 nM and the IC50 (ABC-1) was 904 nM. The IC50 (AU565) was greater than 2560 nM, the IC50 (Panc1005) was greater than 2560 nM and the IC50 (CAS-1) was greater than 2560 nM. The IC50 (8305C) was greater than 2560 nM, the IC50 (EW-1) was 85.8 nM and the IC50 (U-266) was greater than 2560 nM. For the same compound, the IC50 (HOP-62) was greater than 2560 nM, the IC50 (MSTO-211H) was greater than 2560 nM and the IC50 (ES1) was 107 nM.

`C=CCc1cccc(/C=N/NC(=O)CN2CCN(Cc3ccccc3)CC2)c1O` [PAC-1] gave an IC50 (NCI-H69) greater than 2560 nM, an IC50 (RPMI-7951) greater than 2560 nM and an IC50 (FaDu) greater than 2560 nM. It also gave an IC50 (P12-Ichikawa) greater than 2560 nM, an IC50 (AGS) greater than 2560 nM and an IC50 (SK-UT-1) greater than 2560 nM. The IC50 (HCC2218) was greater than 2560 nM, the IC50 (SW982) was greater than 2560 nM and the IC50 (CAPAN-1) was greater than 2560 nM. For the same compound, the IC50 (MDA-MB-415) was greater than 2560 nM, the IC50 (JVM-2) was greater than 2560 nM and the IC50 (HCC1187) was greater than 2560 nM. It also gave an IC50 (EW-24) greater than 2560 nM, an IC50 (UACC-893) greater than 2560 nM and an IC50 (Becker) greater than 2560 nM. For the same compound, the IC50 (SK-N-AS) was greater than 2560 nM, the IC50 (RPMI-2650) was greater than 2560 nM and the IC50 (LB771-HNC) was greater than 2560 nM. The IC50 (BT-474) was greater than 2560 nM, the IC50 (RPMI-8226) was greater than 2560 nM and the IC50 (HuCCT-1) was 1460 nM. It also gave an IC50 (SF-539) greater than 2560 nM, an IC50 (A101D) greater than 2560 nM and an IC50 (T84) of 1030 nM. For the same compound, the IC50 (SK-N-FI) was greater than 2560 nM, the IC50 (CAL-27) was greater than 2560 nM and the IC50 (LK-2) was greater than 2560 nM. The IC50 (DMS-79) was greater than 2560 nM, the IC50 (RO82-W-1) was greater than 2560 nM and the IC50 (CAMA-1) was greater than 2560 nM. It also gave an IC50 (NCI-H720) greater than 2560 nM, an IC50 (MKN-28) greater than 2560 nM and an IC50 (HCE-4) greater than 2560 nM. It also gave an IC50 (LS-123) greater than 2560 nM, an IC50 (NY) greater than 2560 nM and an IC50 (EW-11) greater than 2560 nM. For the same compound, the IC50 (NCI-H2342) was greater than 2560 nM, the IC50 (NCI-H2347) was greater than 2560 nM and the IC50 (SCC-4) was greater than 2560 nM. It also gave an IC50 (M14) greater than 2560 nM, an IC50 (HN) greater than 2560 nM and an IC50 (ABC-1) greater than 2560 nM. It also gave an IC50 (AU565) greater than 2560 nM, an IC50 (Panc1005) greater than 2560 nM and an IC50 (CAS-1) greater than 2560 nM. The IC50 (8305C) was greater than 2560 nM, the IC50 (EW-1) was greater than 2560 nM and the IC50 (U-266) was greater than 2560 nM. For the same compound, the IC50 (HOP-62) was 2540 nM, the IC50 (MSTO-211H) was greater than 2560 nM and the IC50 (ES1) was greater than 2560 nM.
